Values of other authors as cited in patent US20250099443A1, “METHODS FOR SYNTHESIZING ALEUTIANAMINE AND ANALOGS THEREOF” (California Institute of Technology, priority 2023, published 2025).

Test system: human pancreatic adenocarcinoma cell line PANC-1

## O=C1C2=C3C4=[N+](CCc5c[nH]c1c54)[C@@H]1C[C@]34S[C@@H](C=C4C=C1Br)N2 [Aleutianamine]
Human pancreatic adenocarcinoma cell line PANC-1, read-out: IC50 against PANC-1
  IC50: 25 nM
Times greater than that of gemcitabine
  potency against PANC-1 relative to gemcitabine: over 160 times
